# Test system: misfolded proteins
# Assay: Binding of misfolded proteins to biotinylated peptide on streptavidin plate (OD 492 nm) or Biacore sensor chip
# Conditions: statement in words; data only in figures
# Procedure: Biotinylated PRKLYDY (SEQ ID NO: 5) was coated on a preblocked streptavidin plate for 1 hour at room temperature. After a washing step different concentrations of HOCl-modified albumin, or HOCl-modified fibrinogen, or HOCl-modified antithrombin, or HOCl-modified LDL (including negative control) were added for 1 hour at room temperature. After another washing step mouse anti HSA antibody was added to HOCl-modified albumin, rabbit anti fibrinogen antibody to HOCl-modified fibrinogen, rabbit anti antithrombin antibody to HOCl-modified antithrombin and mouse anti Apo B antibody to HOCl-modified LDL for 1 hour at room temperature. After another washing step the corresponding peroxidase coupled secondary antibody was added for 1 hour at room temperature. After a final washing step it was stained with o-phenylenediamine-substrate and the reaction was stopped after 30 min with 4 N sulphuric acid. The optical density was measured at 492 nm. The result is illustrated in FIG. 1A and FIG. 1B.
# Biotinylated HWRRAHLLPRLP (SEQ ID NO: 2) was coated on a preblocked streptavidin plate for 1 hour at room temperature. After a washing step different concentrations of HOCl-modified albumin, or HOCl-modified fibrinogen, or HOCl-modified antithrombin, or HOCl-modified LDL (including negative control) were added for 1 hour at room temperature. […] The optical density was measured at 492 nm (FIG. 8A and FIG. 8B). […]
row,Substance,affinity for misfolded proteins (general binding partner)
1,"PRKLYDY (Plasminogen peptide) [Pro, Arg, Lys, Leu, Tyr, Asp, Tyr]",high affinity
2,"HWRRAHLLPRLP (ADAM15 peptide aa position 286-297) [His, Trp, Arg, Arg, Ala, His, Leu, Leu, Pro, Arg, Leu, Pro]",high degree of affinity

# — patent publication US10416170B2, “Detection and removal of misfolded proteins/peptides” (OXPROTECT GMBH, priority 2011, dated 2019)
